# Measured values reported in patent US9932589B2, “EML4-ALK fusion gene” (Astellas Pharma Inc., priority 2006, dated 2018).
# Experiments:
# NPM-ALK = target: T1, NPM-ALK (Homo sapiens, UniProt Q9UM73); settings: Non-Patent Document 22; cited from earlier work
# T1 construct: the other entry of the earlier key: NPM1 (P06748, Nucleophosmin)
# [1] = tested on: EML4-ALK fusion polypeptide v1; assay: in vitro phosphorylation of peptide substrate (TK substrate 1) by EML4-ALK fusion polypeptide v1, HTRF KinEASE-TK kit; assay type: biochemical, human
# Description: (§1) The v1 expressing BA/F3 cells (Example 5(1)) were cultured in RPM1640 medium containing 10% of fetal bovine scrum to obtain 2.7×10^9 cells. After washing 3 times with PBS, cells were lysed in a lysis solution (50 mM Tris HCl (pH7.4), 150 mM NaCl, 1% Triton×100, 5 mM EDTA, 5 mM EGTA, 1 mM NaVO4, 1 mM DTT and protease inhibitor cocktail complete). The EML4-ALK fusion polypeptide v1 present in the supernatant obtained after a centrifugation was purified using ANTI-FLAG M2 Affinity Gel (SIGMA-ALDRICH Inc) according to the method described in the product information document. For washing and elution, the washing solution (50 mM Tris.HCl (pH7.4), 250 mM NaCl, 0.05% Brij35, 1 mM EDTA, 1 mM EGTA, 1 mM NaVO4, 1 mM DTT, complete) and the elution solution (50 mM Tris.HCl (pH7.4), 150 mM NaCl, 0.05% Brij35, 1 mM DTT, 0.5 mg/mL FLAG peptide) were used, respectively. Immunoblotting using anti-ALK antibody and anti FLAG M2 antibody (SIGMA-ALDRICH Inc.) and silver staining were carried out for the eluate to detect the EML4-ALK fusion polypeptide v1.
# In addition, the phosphorylation activity toward a peptide substrate was investigated using a kinase activity detection kit (HTRF KinEASE-TK; Cisbio Inc.). Using TK substrate 1, which was included in the kit, as the substrate, and after adding no ATP or 100 μM ATP, the mixtures were reacted at room temperature for 1 hour, and the count of HTRF was detected as recommended by the Kits manufacturer. As the result it became clear that the count of HTRF (that is, phosphorylation of the peptide substrate) was increased by about 12 times by the addition of ATP compare to no addition of ATP. As shown above, the in vitro kinase activity of the EML4-ALK fusion polypeptide v1 can be detected using anti-phosphorylated ALK antibody and the kinase activity detection kit.
# (§2) The inhibitory effect of compound A-D against the in vitro kinase activity of the EML4-ALK fusion polypeptide v1 was investigated using anti-phosphorylated ALK antibody and the kinase activity detection kit. Respective compounds were added to the reaction solution containing the EML4-ALK fusion polypeptide v1 at a final concentration of 10 μM or 10 nM, and then the reaction was carried out with or without the addition of ATP. The rest of the operations were carried out according to the method (2) described above. […] The inhibition (%) of the kinase activity of the EML4-ALK fusion polypeptide v1 by a compound was calculated by the following formula. […]
# [2] = tested on: v1 expressing BA/F3 cells; assay: growth of v1 expressing BA/F3 cells in the absence of IL-3; assay type: cell-based, mouse; settings: 1 μM, 5 μM or 10 μM
# Description: Next, compound A, which is a substance that inhibits the EML4-ALK fusion polypeptide v1, was added to BA/F3 cells which obtained the IL-3 independent growth potential by expressing the EML4-ALK fusion polypeptide v1, and its effect on cell growth was investigated. […] That is, it was confirmed that cells, growing dependently on the EML4-ALK fusion polynucleotide (oncogene), were killed by an inhibitor of the EML4-ALK fusion polypeptide v1.
# U-87MG cells = assay: anchorage independent growth on spheroid plate, U-87MG cells expressing full length ALK; assay type: cell-based, human; settings: 3 days; for inhibition at 0.01 µM: final concentration 10 nM
# Description: (§3) The v1 expressing 3T3 cells (Example 6(1)) and one of the human glioma cells expressing the full length ALK polypeptide and not expressing EML4-ALK fusion polynucleotide endogenously, U-87 MG cells, were seeded to a 96 well spheroid plate (Sumilon Celltight Spheroid 96U, Sumitomo Bakelite Inc.) at 3000 cells per well in a medium containing 10% fetal bovine serum (DMEM for v1 expressing 3T3 cells and RPMI 1640 for U-87MG). […] At the same time, cells were counted before the addition of drugs (Day 0). Then, cells were cultured under 5% CO2, at 37° C. for 3 days, mixed with a reagent for measuring cell number (CellTiter-Glo™ Luminescent Cell Viability Assay; Promega Inc.) stirred for 20 minutes, and the measurements (day 3) were carried out using a luminometer (ML3000 microtiter plate luminometer; Dynatech Laboratories Inc.).
# [3] = target: T2, EML4-ALK fusion polypeptide v1 (Homo sapiens, UniProt Q9UM73, D1529E/I1461V/K1491R); assay: intracellular autophosphorylation of EML4-ALK fusion polypeptide v1 in v1 expressing 3T3 cells; assay type: cell-based; settings: 4 hours
# T2 construct: expressed in transfected cells; host or cells: mouse 3T3 fibroblasts transfected with EML4-ALKv1/pMXS (v1 expressing 3T3 cells); for A10, grown as a subcutaneous tumour in nude mice
# [4] = tested on: CD8 expressing BA/F3 cells; assay: growth of CD8 expressing BA/F3 cells in the presence of IL-3; assay type: cell-based, mouse; settings: 1 μM, 5 μM or 10 μM
# [5] = tested on: EML4-ALK fusion polypeptide v1; assay: in vitro kinase activity (autophosphorylation) of purified EML4-ALK fusion polypeptide v1, immunoblotting with anti-phosphorylated ALK antibody; assay type: biochemical, human
# Description: as §1
# The EML4-ALK fusion polypeptide v1 purified as described above was diluted in a reaction solution (15 mM Tris HCl (pH7.4), 0.25 mM MgCl2, 0.01% Tween-20, 2 mM DTT), and then ATP was not added or ATP 20 μM was added. The respective mixtures were reacted at room temperature for 1 hour. After the reaction, the auto phosphorylated EML4-ALK fusion polypeptide v1 and the EML4-ALK fusion polypeptide v1 were detected by immunoblotting using anti-phosphorylated ALK antibody, which recognizes specifically the product phosphorylated at the 1604th tyrosine residue of ALK, and anti-ALK antibody, and quantitated by an image analysis system (VersaDoc Imaging System; Bio-Rad Inc.). The amount of phosphorylation was calibrated by dividing the count of the autophosphorylated EML4-ALK fusion polypeptide v1 by the count of the EML4-ALK fusion polypeptide v1. As the result, the autophosphorylated EML4-ALK fusion polypeptide v1 band was detected at the location of about 130 kDa under the condition of ATP addition, and the amount of phosphorylation was increased by about 205 folds compared to no-ATP addition.
# as §2
# v1 expressing 3T3 cells = assay: anchorage independent growth on spheroid plate, v1 expressing 3T3 cells; assay type: cell-based, mouse
# Description: as §3
# [6] = tested on: EML4-ALK fusion polypeptide v1; assay: intracellular autophosphorylation of EML4-ALK fusion polypeptide v1 in v1 expressing BA/F3 cells; assay type: cell-based, human; settings: for Inhibition on autophosphorylation (BA/F3cells): 6 hours
# Description: Compound A (1 μM, 5 μM and 10 μM) was added to the culture medium of v1 expressing BA/F3 cells (Example 5(1)) or not added, and cultured for 3 hours. In addition, BA/F3 cells expressing FLAG-EML4-ALKv1(K589M) were produced using pMX-iresCD8 vector in which EML4-ALK (K589M) was integrated so that FLAG can be added, and cultured. After culturing, cells were counted and the level of phosphorylation of tyrosine of EML4-ALK fusion polypeptide v1 was measured by immunoblotting using anti-phosphorylated ALK antibody. Further, for the same transfer membrane, immunoblotting analysis by anti-FLAG tag antibody (Eastman Kodak Inc.) was carried out, and total protein quantity of the FLAG attached EML4-ALK fusion polypeptide v1 was measured.
# However, the culturing time after the addition of the compounds was 6 hours, and the total protein amount of the EML4-ALK fusion polypeptide v1 was measured using anti-ALK antibody. In addition, the amount of phosphorylation was calculated by quantitating as in Example 7(2). Also, for compound A, the amount of phosphorylation was calculated by quantitating in experiment under this condition. The rate of inhibition was calculated from the amount of phosphorylation when the compound was added, using the value when the compound was not added (the solvent of the compound, DMSO was added) as a control (0% inhibition).
# [7] = target: T3, EML4-ALK fusion polypeptide v2 (Homo sapiens, UniProt Q9UM73, D1529E/I1461V/K1491R); assay: intracellular autophosphorylation of EML4-ALK fusion polypeptide v2 in 293EBNA cells; assay type: cell-based; settings: final concentration 10 nM, 4 hours
# T3 construct: expressed in transfected cells; host or cells: 293EBNA cells (Invitrogen) transfected with FLAG-EML4-ALKv2/pcDNA3
# [8] = tested on: v1 expressing 3T3 cells (tumor); assay: anti-tumor test against v1 expressing 3T3 cells inoculated subcutaneously in nude mice; assay type: in vivo, mouse; settings: once a day for 10 days, start 6 days after inoculation, otherwise similar procedure
# Description: Administrations were performed once a day for 14 days, and body weight and tumor size were measured every other day. Tumor volume was calculated using the following formula. […] The administration of the compound D was started after 6 days of the inoculation and carried out once a day for 10 days, and then the tumor size was measured.
# [9] = Mus musculus, NIH3T3, read-out: inhibition rate of anchorage independent growth, v1 expressing 3T3 cells
# [10] = Homo sapiens, U-87 MG, 72 h, read-out: inhibition rate of anchorage independent growth, U-87MG cell
# T2 sequence (Q9UM73 with tags, fused parts or gaps I1461V/K1491R/D1529E): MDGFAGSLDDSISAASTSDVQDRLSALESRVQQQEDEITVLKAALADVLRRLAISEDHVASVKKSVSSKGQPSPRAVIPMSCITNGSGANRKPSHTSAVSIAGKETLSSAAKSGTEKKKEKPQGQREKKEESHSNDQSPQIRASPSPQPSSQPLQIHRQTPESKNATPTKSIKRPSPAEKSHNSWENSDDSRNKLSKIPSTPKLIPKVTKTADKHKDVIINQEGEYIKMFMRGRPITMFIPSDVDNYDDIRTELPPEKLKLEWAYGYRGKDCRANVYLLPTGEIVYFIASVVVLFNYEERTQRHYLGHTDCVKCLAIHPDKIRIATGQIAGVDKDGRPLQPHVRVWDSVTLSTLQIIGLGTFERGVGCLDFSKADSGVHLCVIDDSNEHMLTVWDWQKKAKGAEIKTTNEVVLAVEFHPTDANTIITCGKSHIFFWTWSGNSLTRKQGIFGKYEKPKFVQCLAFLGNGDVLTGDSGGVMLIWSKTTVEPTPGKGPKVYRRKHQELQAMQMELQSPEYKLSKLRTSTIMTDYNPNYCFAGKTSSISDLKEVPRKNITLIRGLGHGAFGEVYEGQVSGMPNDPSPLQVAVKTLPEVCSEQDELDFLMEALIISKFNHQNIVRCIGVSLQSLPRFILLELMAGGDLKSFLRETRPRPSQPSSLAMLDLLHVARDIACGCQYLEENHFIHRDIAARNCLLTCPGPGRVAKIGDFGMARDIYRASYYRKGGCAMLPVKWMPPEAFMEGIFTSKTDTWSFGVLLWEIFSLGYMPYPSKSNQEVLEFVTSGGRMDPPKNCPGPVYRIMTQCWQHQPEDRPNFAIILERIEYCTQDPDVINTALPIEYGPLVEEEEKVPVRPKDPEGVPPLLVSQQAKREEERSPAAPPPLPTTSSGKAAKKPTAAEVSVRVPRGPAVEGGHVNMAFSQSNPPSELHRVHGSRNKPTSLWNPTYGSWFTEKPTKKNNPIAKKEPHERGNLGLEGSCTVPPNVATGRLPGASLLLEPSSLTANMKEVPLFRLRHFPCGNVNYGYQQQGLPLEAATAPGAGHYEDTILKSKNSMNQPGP
# T1 sequence (Q9UM73 with tags, fused parts or gaps): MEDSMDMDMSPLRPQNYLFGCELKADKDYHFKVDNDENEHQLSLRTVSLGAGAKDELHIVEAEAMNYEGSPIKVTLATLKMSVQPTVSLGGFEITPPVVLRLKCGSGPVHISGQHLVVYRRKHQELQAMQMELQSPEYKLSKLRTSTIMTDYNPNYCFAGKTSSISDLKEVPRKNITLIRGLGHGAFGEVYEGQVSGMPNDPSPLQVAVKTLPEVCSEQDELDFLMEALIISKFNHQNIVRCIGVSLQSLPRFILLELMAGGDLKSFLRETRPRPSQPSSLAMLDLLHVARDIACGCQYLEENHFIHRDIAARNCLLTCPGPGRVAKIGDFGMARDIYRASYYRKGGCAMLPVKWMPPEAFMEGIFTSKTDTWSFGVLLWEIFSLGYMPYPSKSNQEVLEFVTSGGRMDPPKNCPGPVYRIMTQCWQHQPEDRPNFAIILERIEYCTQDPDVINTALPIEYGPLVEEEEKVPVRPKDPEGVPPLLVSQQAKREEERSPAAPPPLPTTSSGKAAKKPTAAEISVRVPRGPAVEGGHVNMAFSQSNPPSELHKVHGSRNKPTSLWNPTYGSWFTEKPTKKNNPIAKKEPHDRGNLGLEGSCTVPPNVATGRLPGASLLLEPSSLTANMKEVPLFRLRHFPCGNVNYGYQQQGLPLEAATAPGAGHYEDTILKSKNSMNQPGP
# T3 sequence (Q9UM73 with tags, fused parts or gaps I1461V/K1491R/D1529E): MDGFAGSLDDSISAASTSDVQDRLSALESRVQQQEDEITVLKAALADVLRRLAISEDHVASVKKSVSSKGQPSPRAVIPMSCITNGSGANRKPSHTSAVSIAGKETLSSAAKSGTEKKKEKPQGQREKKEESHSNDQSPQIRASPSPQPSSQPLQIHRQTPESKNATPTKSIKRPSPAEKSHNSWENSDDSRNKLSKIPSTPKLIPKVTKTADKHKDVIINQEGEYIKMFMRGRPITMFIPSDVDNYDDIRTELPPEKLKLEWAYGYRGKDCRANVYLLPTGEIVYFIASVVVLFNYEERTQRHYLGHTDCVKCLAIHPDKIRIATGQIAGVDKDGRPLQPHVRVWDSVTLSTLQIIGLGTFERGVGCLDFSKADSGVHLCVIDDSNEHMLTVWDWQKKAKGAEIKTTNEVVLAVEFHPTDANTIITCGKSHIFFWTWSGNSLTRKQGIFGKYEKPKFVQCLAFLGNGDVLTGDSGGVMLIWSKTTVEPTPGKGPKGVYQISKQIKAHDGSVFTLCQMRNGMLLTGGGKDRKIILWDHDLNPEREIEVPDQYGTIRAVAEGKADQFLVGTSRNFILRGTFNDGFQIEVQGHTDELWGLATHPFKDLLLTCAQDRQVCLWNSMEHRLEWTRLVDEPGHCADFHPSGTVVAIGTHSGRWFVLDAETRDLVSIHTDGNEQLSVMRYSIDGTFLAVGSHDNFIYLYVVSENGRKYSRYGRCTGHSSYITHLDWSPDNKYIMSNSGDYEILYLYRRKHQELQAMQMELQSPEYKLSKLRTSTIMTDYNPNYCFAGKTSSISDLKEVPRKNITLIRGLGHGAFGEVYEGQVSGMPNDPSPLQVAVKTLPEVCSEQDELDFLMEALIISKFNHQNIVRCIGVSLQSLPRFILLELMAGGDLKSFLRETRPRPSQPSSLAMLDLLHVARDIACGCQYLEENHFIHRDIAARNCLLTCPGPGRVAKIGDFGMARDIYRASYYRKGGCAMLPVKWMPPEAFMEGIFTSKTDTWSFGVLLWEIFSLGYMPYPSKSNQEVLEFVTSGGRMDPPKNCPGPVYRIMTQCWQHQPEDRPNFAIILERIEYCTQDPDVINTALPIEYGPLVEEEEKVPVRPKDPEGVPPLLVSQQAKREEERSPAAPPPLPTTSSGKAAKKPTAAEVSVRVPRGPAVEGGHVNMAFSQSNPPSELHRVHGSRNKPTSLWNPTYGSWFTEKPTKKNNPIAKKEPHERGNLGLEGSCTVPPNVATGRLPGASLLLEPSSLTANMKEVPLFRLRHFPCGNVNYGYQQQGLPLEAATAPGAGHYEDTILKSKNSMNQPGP
SMILES,activity of NPM-ALK (NPM-ALK),Inhibition on peptide substrate ([1]; final concentration 10 μM) [%],Inhibition on autophosphorylation ([5]; final concentration 10 μM) [%],Inhibition on autophosphorylation (BA/F3cells) ([6]; final concentration 10 μM) [%],Inhibition on peptide substrate ([1]; final concentration 10 nM) [%],inhibition at 0.01 µM (U-87MG cells; [10]) [%],Inhibition on autophosphorylation ([5]; final concentration 10 nM) [%],inhibition at 0.01 µM (v1 expressing 3T3 cells; [9]) [%],Inhibition on autophosphorylation (BA/F3cells) ([6]; final concentration 10 nM) [%],also measured
"COc1cc2ncnc(Nc3ccc(O)cc3)c2cc1OC [WHI-P131, 4-(4′-Hydroxyphenyl)amino-6,7-dimethoxyquinazo line]",inhibit the activity of NPM-ALK,,,,,,,,,
"COc1cc2ncnc(Nc3ccc(O)c(Br)c3)c2cc1OC [compound A, 4-[(3′-Bromo-4′-hydroxyphenyl)amino]-6,7-dimethoxyquinazoline]",inhibit the activity of NPM-ALK,99,104,74,,,,,,"cell growth of v1 expressing BA/F3 cells (FIG. 6(b)) [2]: the cell growth was markedly inhibited by concentration-dependence of compound A and cell death was induced; inhibition rate of anchorage independent growth, U-87MG cell (U-87MG cells; final concentration 10 μM): 15%; Inhibition on autophosphorylation (3T3cells) ([3]; final concentration 10 μM): 82%; cell growth of CD8 expressing BA/F3 cells (FIG. 6(a)) [4]: a slight growth inhibition was observed; inhibition rate of anchorage independent growth, v1 expressing 3T3 cells (v1 expressing 3T3 cells; final concentration 10 μM, 3 days, Day 0 = 100%, Day 3 = 0% inhibition): 106%; intracellular autophosphorylation of the EML4-ALK fusion polypeptide v1 (FIG. 4) ([6]; 1 μM, 5 μM and 10 μM, 3 hours): inhibits the intracellular autophosphorylation of the EML4-ALK fusion polypeptide v1 in a concentration-dependent manner"
"O=C(COc1ccc(OC(F)(F)F)cc1)NCc1nc(C(=O)NCCc2cccc(Cl)c2)cs1 [compound B, N-[2-(3-chlorophenyl)ethyl]-2-[({[4-(trifluoromethoxy)phenoxy]acetyl}amino)methyl]-1,3-thiazole-4-carboxamide]",,56,68,77,,,,,,"inhibition at 10 µM (U-87MG cells; Homo sapiens, U-87 MG, 72 h, final concentration 10 μM, read-out: inhibition rate of anchorage independent growth, U-87MG cell): 34%; inhibition at 10 µM ([3]; NIH3T3, final concentration 10 μM, read-out: Inhibition on autophosphorylation (3T3cells)): 49%; inhibition at 10 µM (v1 expressing 3T3 cells; [9]): 91%"
"COc1cc(N2CCC(N3CCN(C)CC3)CC2)ccc1Nc1ncc(Cl)c(Nc2ccccc2S(=O)(=O)C(C)C)n1 [compound C, 5-chloro-N^4-[2-(isopropylsulfonyl)phenyl]-N^2-{2-methoxy-4-[4-(4-methylpiperazin-1-yl)piperidin-1-yl]phenyl}pyrimidine-2,4-diamine]",,,,,99,-2,102,131,84,
"CNS(=O)(=O)c1ccccc1Nc1nc(Nc2ccc(N3CCN(C)CC3)cc2OC)ncc1Br [compound D, 2-[(5-bromo-2-{[2-methoxy-4-(4-methylpiperazin-1-yl)phenyl]amino}pyrimidin-4-yl)amino]-N-methylbenzenesulfonamide]",,,,,99,-2,96,135,90,"inhibition at 0.01 µM ([3]; NIH3T3, final concentration 10 nM, read-out: Inhibition on autophosphorylation (3T3cells)): 86%; inhibition at 0.01 µM [7]: 95%; inhibition of growth of v1 expressing 3T3 cells (tumor), tumor volume [8]: 101%"
